Each block holds one compound with its values, some of them ahead of it.
Key:
actinic keratoses = test system: actinic keratoses; design: method as in PMID 18808378; conditions: 14 human patients; cited from earlier work
[1] = test system: primary equine melanoma cells MelDuWi; assay: MTS cytotoxicity assay (CellTiter 96 AQueous One Solution); type: cell-based, horse; conditions: Equus caballus, mean (95% CI), 6–8 experiments
Experimental: (§1) The inhibitory effect of BA on cell proliferation was evaluated using a modified crystal violet staining (CVS) assay. In brief, cells were seeded into 96-well microtiter plates with a density of 5000 cells/well to avert confluence of the cells during the experimental period. Twenty-four hours later, the cells were treated with serial dilutions of BA dissolved in DMSO and medium at nine different concentrations ranging from 1 to 100 μmol/L. The highest concentration of DMSO solvent was 0.5% in 100 μmol/L, which had neither an impact on the cell proliferation rate nor on the cell survival rate (preliminary experiments and regular controls within the experiments; data not shown). Control cells were only treated with medium. The proportion of treated cells in relation to untreated controls was determined 5, 24, 48 and 96 h after the beginning of the drug exposure. The medium for 96-h experiments was renewed before cell treatment (24 h after inoculation). The medium-compound mix was discarded at the time points mentioned above and cells were fixed with 2% glutaraldehyde (Sigma-Aldrich) in PBS for 20 min. Glutaraldehyde was removed and cells were dyed for 30 min with 0.1% crystal violet (Roth GmbH, Karlsruhe, Germany) in deionized water. After washing with deionized water, the plates were air-dried. Subsequently, crystal violet was solubilized out of the cells by adding 2% Triton X-100 (Sigma-Aldrich, Steinheim, Germany) in deionized water. After 1 h of incubation, absorbance was measured at 570 nm using a 96-well microtiter plate reader (MRX microplate reader, Dynatech Laboratories, El Paso, US). Experiments were performed in six to eight biological replicates with two technical replicates for each combination of cell type, incubation time and pharmacologic compound concentration. The ratios of mean optical density of the duplicate to mean optical density of the associated controls were used for dose-response curves.
(§2) The cytotoxicity of BA was evaluated using the CellTiter 96® AQueous One Solution Cell Proliferation Assay (MTS) (Promega GmbH, Mannheim, Germany). Cells were seeded into 96-well microtiter plates with the appropriate cell densities to achieve confluence after 48 h (MelDuWi 30.000 cells/well; PriFi1, PriFi2, eRGO1 20.000 cells/well). After 48 h, these cells were treated in accordance with the CVS assay. Experiments were stopped at the same time points as the CVS assay. The medium for the 96-h experiments was renewed before treatment. The MTS was applied in accordance with the manufacturer’s instructions. After 1 h incubation, the plate absorbance was measured at 490 nm using a 96-well microtiter plate reader (MRX microplate reader, Dynatech Laboratories, El Paso, US). Experiments were performed in six to eight biological replicates with two technical replicates for each combination of pharmacologic compound, cell type, incubation time and concentration.
(§3) Technical duplicates with a coefficient of variation of more than 20% were excluded from the analysis of the cell assays. The pharmacodynamic model 108 of Phoenix® WinNonlin® software (version 8.1, Certara, USA) was used to determine half-maximal inhibitory concentrations (IC50 values). Further statistical analysis was performed with R 3.5.1 [60]. A generalized additive model was fitted for both MTS and CVS using the ‘mgcv’ package to estimate the effects of the BA concentration, cell line and duration of incubation on the ratio of the mean optical density of the duplicates from six to eight replicates to the mean optical density of the associated controls. The effect of concentration was modelled as a smoothed term interacting with the duration of incubation using a thin plate regression spline. The P-values were obtained by performing a Wald test for each parameter. Post-hoc comparisons for the cell line and duration of incubation were performed using the ‘multcomp’ package with single-step adjustment of the P-values. […]

[2] = test system: primary equine melanoma cells eRGO1; assay: as above; type: cell-based, horse; conditions: Equus caballus, mean (95% CI), 6–8 experiments
Experimental: as §1, §2, §3

[3] = test system: primary equine dermal fibroblasts PriFi2; assay: as above; type: cell-based, horse; conditions: Equus caballus, Fibroblast, mean (95% CI), 6–8 experiments
Experimental: as §1, §2, §3

[4] = test system: primary equine dermal fibroblasts PriFi1; assay: as above; type: cell-based, horse; conditions: Equus caballus, Fibroblast, mean (95% CI), 6–8 experiments
Experimental: as §1, §2, §3

[5] = test system: primary equine melanoma cells MelDuWi; assay: Crystal violet staining (CVS) proliferation assay; type: cell-based, horse; conditions: Equus caballus, mean (95% CI), 6–8 experiments
Experimental: as §1
(§4) Technical duplicates with a coefficient of variation of more than 20% were excluded from the analysis of the cell assays. The pharmacodynamic model 108 of Phoenix® WinNonlin® software (version 8.1, Certara, USA) was used to determine half-maximal inhibitory concentrations (IC50 values). Further statistical analysis was performed with R 3.5.1 [60]. A generalized additive model was fitted for both MTS and CVS using the ‘mgcv’ package to estimate the effects of the BA concentration, cell line and duration of incubation on the ratio of the mean optical density of the duplicates from six to eight replicates to the mean optical density of the associated controls. The effect of concentration was modelled as a smoothed term interacting with the duration of incubation using a thin plate regression spline. The P-values were obtained by performing a Wald test for each parameter. Post-hoc comparisons for the cell line and duration of incubation were performed using the ‘multcomp’ package with single-step adjustment of the P-values. Plots were produced with ggplot2 [63]. Statistical significance was set at P < 0.05.

[6] = test system: primary equine melanoma cells eRGO1; assay: Crystal violet staining (CVS) proliferation assay; type: cell-based, horse; conditions: Equus caballus, mean (95% CI), 6–8 experiments
Experimental: as §1, §4

[7] = test system: primary equine dermal fibroblasts PriFi2; assay: Crystal violet staining (CVS) proliferation assay; type: cell-based, horse; conditions: Equus caballus, Fibroblast, mean (95% CI), 6–8 experiments
Experimental: as §1, §4

[8] = test system: primary equine dermal fibroblasts PriFi1; assay: Crystal violet staining (CVS) proliferation assay; type: cell-based, horse; conditions: Equus caballus, Fibroblast, mean (95% CI), 6–8 experiments
Experimental: as §1, §4

[9] = test system: equine melanoma cells MelDuWi; design: method as in PMID 26772157; conditions: 96 h incubation, read-out: IC50, sulforhodamine B assay; cited from earlier work
[10] = test system: equine melanoma cells MelJess; design: method as in PMID 26772157; conditions: 96 h incubation, read-out: IC50, sulforhodamine B assay; cited from earlier work
[11] = Franz-type diffusion cell penetration and permeation on isolated equine skin; type: in vitro ADME, horse; conditions: 24 h FDC
From the text: Skin samples from seven adult horses of different sex (three mares, two geldings, two unknown) and breed (including three Warmbloods, one Icelandic horse and one Welsh Cob pony, two unknown) were harvested at the Institute of Pathology, University of Veterinary Medicine Hannover, Foundation, Hannover, after euthanasia at the Clinic for Horses, University of Veterinary Medicine Hannover, Foundation, Hannover, for reasons unrelated to the present study. The horses’ ages ranged from 4 to 24 years, with a median of 13.5 years. Skin from the lateral thorax was dissected and stored at − 20 °C for up to 5 months.
“Basiscreme DAC” (pharmaceutical amphiphilic formulation as published in the German Drug Codex) with 1% BA and 20% medium-chain triglycerides was provided by Skinomics GmbH, Halle, Germany.
In order to investigate the penetration and permeation of 1% BA with 20% medium-chain triglycerides in “Basiscreme DAC” through equine skin, the skin samples were defrosted overnight at room temperature. The coat was clipped to a length of approximately 0.5 mm. The integrity of the skin samples was visually assessed. Skin slices of 800 μm (+/− 110 μm) thickness were obtained with an electrical dermatome (Zimmer, Eschbach, Germany). Franz-type diffusion cells (FDC) (PermeGear, Riegelsville, USA, and Gauer Glas, Püttlingen, Germany) with a diffusion area of 1.77 cm^2 and an acceptor chamber volume of approximately 12 mL were filled with PBS and 1% bovine serum albumin. The acceptor chamber content was constantly stirred with a magnetic stirrer at 500 rpm. Diffusion chambers were maintained at 34 °C to ensure a skin temperature of 32 ± 0.5 °C. Before use, equal hydration of the skin samples was obtained by 30 min immersion in PBS. After gently drying with a paper tissue, 20 mg of the drug formulation was carefully applied to the skin surface (stratum corneum) covering the complete diffusion area before mounting the skin pieces onto the FDC. The donor chamber and sampling tube were covered with parafilm.
After 24 h, the remaining donor formulation was removed from the skin with a dry cotton swab. Cotton swabs, acceptor medium and exposed areas of the skin samples, which were cut out with a scalpel blade, were stored at − 20 °C until further processing and analysis. In order to determine the amount of BA in different skin layers, frozen skin samples were fixed on tissue freezing medium (Leica Biosystems Nussloch GmbH, Nussloch, Germany) and placed in a cryostat (CryoStar™ NX70 Cryostat, Thermofisher, Darmstadt, Germany). From each skin sample slices were cut horizontally to the epidermis, starting with the stratum corneum side uppermost, and stored separately. […] After reaching a skin depth of 310 μm, slices were pooled at 5 × 20 μm until a depth of a maximum of 910 μm was reached. The blade was cleaned with tissues soaked in 70% ethanol (CG Chemikalien, Laatzen, Germany) between each cut. These cleaning tissues and skin samples were stored at − 20 °C until final analysis. An analytic high-performance liquid chromatography method was developed for BA quantification in the different skin layers, acceptor medium and cleaning utensils mentioned previously. Reverse phase analysis was performed using an Agilent 1100 system (Agilent, Waldbronn, Germany) on a Kinetex column (5 μm, C18, 100 Å, 250 × 4.6 mm; Phenomenex, Torrance, US) at 35 °C developing with acetonitrile:water (0.1% HCOOH) 4:1 (v/v) at 2.5 mL/min. The diode array detector was set at 200 nm.

[12] = test system: primary equine melanoma cells compared to primary equine dermal fibroblasts; assay: Selectivity to tumor cells compared to normal cells (MTS and CVS assays); type: cell-based, horse; conditions: equine melanoma cells eRGO1, MelDuWi vs fibroblasts PriFi1, PriFi2
Experimental: The inhibitory effect of BA on cell proliferation was evaluated using a modified crystal violet staining (CVS) assay. In brief, cells were seeded into 96-well microtiter plates with a density of 5000 cells/well to avert confluence of the cells during the experimental period. Twenty-four hours later, the cells were treated with serial dilutions of BA dissolved in DMSO and medium at nine different concentrations ranging from 1 to 100 μmol/L. The highest concentration of DMSO solvent was 0.5% in 100 μmol/L, which had neither an impact on the cell proliferation rate nor on the cell survival rate (preliminary experiments and regular controls within the experiments; data not shown). Control cells were only treated with medium. The proportion of treated cells in relation to untreated controls was determined 5, 24, 48 and 96 h after the beginning of the drug exposure. […] After 1 h of incubation, absorbance was measured at 570 nm using a 96-well microtiter plate reader (MRX microplate reader, Dynatech Laboratories, El Paso, US). […]
The cytotoxicity of BA was evaluated using the CellTiter 96® AQueous One Solution Cell Proliferation Assay (MTS) (Promega GmbH, Mannheim, Germany). […] After 1 h incubation, the plate absorbance was measured at 490 nm using a 96-well microtiter plate reader (MRX microplate reader, Dynatech Laboratories, El Paso, US). […]

[13] = 1% BA with 20% medium-chain triglycerides in Basiscreme DAC, mean ± SD

SMILES: C=C(C)[C@@H]1CC[C@]2(CO)CC[C@]3(C)[C@H](CC[C@@H]4[C@@]5(C)CC[C@H](O)C(C)(C)[C@@H]5CC[C@]43C)[C@@H]12 [betulin]
side effects of topical treatment (actinic keratoses): did not lead to any side effects

IC50 ([5]; 24 h treatment): 49.2 µM
IC50 ([5]; 48 h treatment): 35.8 µM
IC50 ([5]; 96 h treatment): 21.6 µM
IC50 ([6]; eRGO1, 24 h treatment): 25.9 µM
IC50 ([6]; eRGO1, 48 h treatment): 21.2 µM
IC50 ([6]; eRGO1, 96 h treatment): 19.6 µM
BA amount applied analyzed in the skin [11, 13]: 24 ± 1%
amount of BA applied detected in the acceptor media [11, 13]: 18 ± 11%
amount of BA applied detected in the cotton swabs ([11]; 1% BA with 20% medium-chain triglycerides in Basiscreme DAC, remaining donor formulation, mean ± SD): 56 ± 13%
recovery at 24 h, 1 % ([11]; both sexes, horse, 1% BA with 20% medium-chain triglycerides in Basiscreme DAC, mean ± SD, n = 7, read-out: overall BA recovery): 98 ± 7%
BA amount found in the blade cleaning tissues ([11]; part of the amount in skin, 1% BA cream, mean ± SD): 9 ± 7%
concentration of BA in skin ([11]; skin depth 710 μm, 1% BA cream, mean ± SD (SD 31 μmol/L)): 55.8 µM
concentration of BA in skin ([11]; skin depth 810 μm, 1% BA cream, mean ± SD (SD 38 μmol/L)): 39.6 µM
SMILES: C=C(C)[C@@H]1CC[C@]2(C(=O)O)CC[C@]3(C)[C@H](CC[C@@H]4[C@@]5(C)CC[C@H](O)C(C)(C)[C@@H]5CC[C@]43C)[C@@H]12 [betulinic acid, Betulinic acid]
IC50 ([1]; 24 h treatment): 34.6 µM
IC50 ([1]; 48 h treatment): 31.7 µM
IC50 ([1]; 96 h treatment): 23.6 µM
IC50 ([2]; eRGO1, 24 h treatment): 22.8 µM
IC50 ([2]; eRGO1, 48 h treatment): 20.7 µM
IC50 ([2]; eRGO1, 96 h treatment): 12.7 µM
IC50 ([3]; PriFi2, 24 h treatment): 24.8 µM
IC50 ([3]; PriFi2, 48 h treatment): 22.7 µM
IC50 ([3]; PriFi2, 96 h treatment): 13.3 µM
IC50 ([4]; PriFi1, 24 h treatment): 20.4 µM
IC50 ([4]; PriFi1, 48 h treatment): 18 µM
IC50 ([4]; PriFi1, 96 h treatment): 13.8 µM
IC50 ([7]; PriFi2, 24 h treatment): 30.3 µM
IC50 ([7]; PriFi2, 48 h treatment): 29.1 µM
IC50 ([7]; PriFi2, 96 h treatment): 13.8 µM
IC50 ([8]; PriFi1, 24 h treatment): 58 µM
IC50 ([8]; PriFi1, 48 h treatment): 52.2 µM
IC50 ([8]; PriFi1, 96 h treatment): 14.5 µM
IC50 [9]: 33.1 µM
IC50 [10]: 33.4 µM
selectivity to tumor cells compared to normal cells [12]: could not be demonstrated
